Assay results published in US9352015B2, “Antimicrobial peptides” (priority 2009, dated 2016).
In brackets after ≈: the same amount, converted by molar mass. Where two headings read alike, the source gives them in different places.

What was measured:
Pseudomonas aeruginosa = details: geometric mean, 6 different isolates, 24 hours at 37° C.
[1] = system: Methicillin Resistant Staphylococcus aureus (MRSA) and Staphylococcus aureus; format: cell-based
Method in brief: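 MICs by microtiter broth dilution in triplicate determinations, mostly LB no-salt medium (sometimes MH or BHI), final inoculum 5×10^5 CFU/ml (1×10^5 CFU/ml in the MH variant), 24 h at 37 °C. MIC is the lowest peptide concentration inhibiting growth; tested on 20 clinical MRSA and S. aureus isolates.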

Acinetobacter baumannii = format: cell-based; details: for Acinetobacter baumannii MICGM: geometric mean, 11 different isolates, 24 hours at 37° C.
Method in brief: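 Microtiter broth dilution in triplicate, mainly LB no-salt medium (MH or BHI in some cases), peptides serially diluted, final inoculum 5×10^5 CFU/ml (1×10^5 CFU/ml in MH variant); 24 h at 37° C. MIC is the lowest peptide concentration inhibiting growth, given in micromolar against clinical isolates.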

[2] = Hemolytic activity against human erythrocytes (HC50 / MHC, microtiter dilution); format: cell-based; details: 1% human erythrocytes, pH 7.4
Method: (§1) Hemoglobin release was determined spectrophotometrically at 570 nm. The hemolytic activity was determined as the peptide concentration that caused 50% hemolysis of erythrocytes after 18 h (HC50). […] HC50 was determined by a plot of peptide concentration versus percent lysis.

human erythrocytes = test: as above; format: cell-based
Method: as §1

[3] = Circular dichroism spectroscopy (helical structure); format: physicochemical

Compound | Pseudomonas aeruginosa MICGM (Pseudomonas aeruginosa) [µM] | MIC GM (geometric mean) [1] [µM] | Antimicrobial Activity MIC against A. baumannii (Acinetobacter baumannii) [µM] | MIC GM (geometric mean) (Acinetobacter baumannii) [µM] | Acinetobacter baumannii MICGM (Acinetobacter baumannii) [µM] | HC50 at 18 h ([2]; human) [µM] | Hemolytic activity HC50 (human erythrocytes) [µM] | Fold more active than D1 against A. baumannii (Acinetobacter baumannii) [fold] | Fold less hemolytic than D1 (human erythrocytes) | [θ]222 molar ellipticity ([3]; benign conditions (100 mM KCl, 50 mM aq. PO4, pH 7)) | HC50 at 18 h ([2]; human erythrocytes, concentration of peptide that results in 50% hemolysis after 18 hours at 37° C., read-out: Hemolytic activity HC50) [µM] | Hemolytic activity HC50 (human erythrocytes; 50% hemolysis after 18 hours at 37° C.) [µM] | [θ]222 molar ellipticity ([3]; 50% TFE, 5° C.)
CC[C@@H](C)[C@@H](NC(=O)[C@@H](C)NC(=O)[C@@H](CCCCN)NC(=O)[C@@H](CC(C)C)NC(=O)[C@@H](CC(C)C)NC(=O)[C@H](NC(=O)[C@@H](CCCCN)NC(=O)[C@@H](CC(C)C)NC(=O)[C@@H](CCCCN)NC(=O)[C@@H](CCCCN)NC(=O)[C@@H](CCCCN)NC(=O)[C@@H](CCCCN)NC(=O)[C@@H](C)NC(=O)[C@@H](CCCCN)NC(=O)[C@@H](CO)NC(=O)[C@@H](Cc1ccccc1)NC(=O)[C@H](NC(=O)[C@@H](CCCCN)NC(=O)[C@@H](CC(C)C)NC(=O)[C@@H](Cc1ccccc1)NC(=O)[C@@H](CO)NC(=O)[C@@H](CCCCN)NC(=O)[C@@H](Cc1c[nH]c2ccccc12)NC(=O)[C@@H](CCCCN)NC(C)=O)[C@H](C)O)[C@H](C)O)C(=O)N[C@H](CO)C(=O)N[C@H](CCCCN)C(N)=O [Peptide D14, Ac-KWKSFLKTFSKAKKKKLKTLLKAISK-amide] | 2.5 | 40.1 (≈ 125 µg/mL) | 0.8 | 0.8 (≈ 2.5 µg/mL) | 0.8 | 352 | 351.5 |  |  |  |  |  | 
CC(=O)N[C@H](CCCCN)C(=O)N[C@H](CC(C)C)C(=O)N[C@H](CCCCN)C(=O)N[C@H](CO)C(=O)N[C@H](CC(C)C)C(=O)N[C@H](CC(C)C)C(=O)N[C@H](CCCCN)C(=O)N[C@@H](C(=O)N[C@H](CC(C)C)C(=O)N[C@H](CO)C(=O)N[C@H](CCCCN)C(=O)N[C@H](C)C(=O)N[C@H](CCCCN)C(=O)N[C@H](CCCCN)C(=O)N[C@H](CCCCN)C(=O)N[C@H](CCCCN)C(=O)N[C@H](CC(C)C)C(=O)N[C@H](CCCCN)C(=O)N[C@@H](C(=O)N[C@H](CC(C)C)C(=O)N[C@H](CC(C)C)C(=O)N[C@H](CCCCN)C(=O)N[C@H](C)C(=O)N[C@H](CC(C)C)C(=O)N[C@H](CO)C(=O)N[C@H](CCCCN)C(N)=O)[C@H](C)O)[C@H](C)O [Peptide D16, Ac-KLKSLLKTLSKAKKKKLKTLLKALSK-amide] | 1.5 | 48.3 (≈ 144 µg/mL) | 0.4 | 0.4 (≈ 1.19 µg/mL) | 0.4 | 1340 |  | ~3 | 9.5 |  |  |  | 
PLL: V681 with L-Leu at position 11 (polar face), SEQ ID NO:13 (KWKSFLKTFKLAVKTVLHTALKAISS) |  |  |  |  |  |  |  |  |  | −10,850 |  |  | 
CC(=O)N[C@H](CCCCN)C(=O)N[C@H](CC(C)C)C(=O)N[C@H](CCCCN)C(=O)N[C@H](CO)C(=O)N[C@H](CC(C)C)C(=O)N[C@H](CC(C)C)C(=O)N[C@H](CCCCN)C(=O)N[C@@H](C(=O)N[C@H](CC(C)C)C(=O)N[C@H](CO)C(=O)N[C@H](CCCCN)C(=O)N[C@H](CC(C)C)C(=O)N[C@H](CCCCN)C(=O)N[C@H](CCCCN)C(=O)N[C@H](CCCCN)C(=O)N[C@H](CCCCN)C(=O)N[C@H](CC(C)C)C(=O)N[C@H](CCCCN)C(=O)N[C@@H](C(=O)N[C@H](CC(C)C)C(=O)N[C@H](CC(C)C)C(=O)N[C@H](CCCCN)C(=O)N[C@H](CC(C)C)C(=O)N[C@H](CC(C)C)C(=O)N[C@H](CO)C(=O)N[C@H](CCCCN)C(N)=O)[C@H](C)O)[C@H](C)O [Peptide D24, Ac-KLKSLLKTLSKLKKKKLKTLLKLLSK-amide] | 3.9 |  |  |  | 1.9 |  | 123 |  |  |  |  |  | 
CC(=O)N[C@H](CCCCN)C(=O)N[C@H](CC(C)C)C(=O)N[C@H](CCCCN)C(=O)N[C@H](CO)C(=O)N[C@H](CC(C)C)C(=O)N[C@H](CC(C)C)C(=O)N[C@H](CCCCN)C(=O)N[C@@H](C(=O)N[C@H](CC(C)C)C(=O)N[C@H](CO)C(=O)N[C@H](CCCCN)C(=O)N[C@H](C)C(=O)N[C@H](CCCCN)C(=O)N[C@H](CCCCN)C(=O)N[C@H](CCCCN)C(=O)N[C@H](CC(C)C)C(=O)N[C@H](CC(C)C)C(=O)N[C@H](CCCCN)C(=O)N[C@@H](C(=O)N[C@H](C)C(=O)N[C@H](CC(C)C)C(=O)N[C@H](CCCCN)C(=O)N[C@H](C)C(=O)N[C@H](CC(C)C)C(=O)N[C@H](CO)C(=O)N[C@H](CCCCN)C(N)=O)[C@H](C)O)[C@H](C)O [Peptide D15, Ac-KLKSLLKTLSKAKKKLLKTALKALSK-amide] | 1 | 8.1 (≈ 23.7 µg/mL) | 0.5 | 0.5 (≈ 1.46 µg/mL) | 0.5 |  | 169.6 |  |  |  | 170 | 170 | 
CC[C@@H](C)[C@@H](NC(=O)[C@@H](C)NC(=O)[C@@H](CCCCN)NC(=O)[C@@H](CC(C)C)NC(=O)[C@@H](C)NC(=O)[C@H](NC(=O)[C@@H](CCCCN)NC(=O)[C@@H](CC(C)C)NC(=O)[C@H](NC(=O)[C@@H](CCCCN)NC(=O)[C@@H](CCCCN)NC(=O)[C@@H](CCCCN)NC(=O)[C@@H](C)NC(=O)[C@@H](CCCCN)NC(=O)[C@@H](CO)NC(=O)[C@@H](Cc1ccccc1)NC(=O)[C@H](NC(=O)[C@@H](CCCCN)NC(=O)[C@@H](CC(C)C)NC(=O)[C@@H](Cc1ccccc1)NC(=O)[C@@H](CO)NC(=O)[C@@H](CCCCN)NC(=O)[C@@H](Cc1c[nH]c2ccccc12)NC(=O)[C@@H](CCCCN)NC(C)=O)[C@H](C)O)C(C)C)[C@H](C)O)C(=O)N[C@H](CO)C(=O)N[C@H](CCCCN)C(N)=O [Peptide D11, Ac-KWKSFLKTFSKAKKKVLKTALKAISK-amide] | 1.6 | 14.0 (≈ 42.7 µg/mL) | 0.6 | 0.6 (≈ 1.83 µg/mL) | 0.6 | 254 | 254.1 |  |  |  |  |  | 
Ac-ELEKGGLEGEKGGKELEK-amide (Ac-ELEKGGLEGEKGGKELEK-NH2) [peptide C] |  |  |  |  |  |  |  |  |  |  |  |  | −3,950
